Measurements taken from patent publication US20150118229A1, “JAK1 SELECTIVE INHIBITOR AND USES THEREOF” (ABBVIE INC., priority 2013, published 2015).

Experiments:
Rock1 = Rock1 (Homo sapiens, UniProt Q13464); test: Kinase panel, Rock1; type: biochemical
IFN-γ = test: Concanavalin A-induced IFN-γ in Lewis rats; type: in vivo; details: oral, 30 min prior to i.v. Con A
Method: The test compound is formulated in an inert vehicle (for example but not limited to 0.5% hydroxypropylmethyl cellulose (Sigma, cat #H3785)/0.02% Tween 80 (Sigma, cat #4780) in water) at the desired concentration to achieve doses in the range of 0.01-100 mg/kg. Six-week-old male Lewis rats (125 g-150 g) (Charles River Laboratories) are dosed with the compound orally, at time zero (0 min). After about 30 min the rats are injected intravenously (i.v.) with 10 mg/kg Concanavalin A (Con A, AmershamBioscience, cat #17-0450-01) dissolved in PBS (Invitrogen, cat #14190). About 4 h later, the rats are cardiac bled and their plasma is analyzed for levels of IL-2 (ELISA kit: R&D Systems cat #R2000) and IFN-γ (ELISA kit: R&D Systems cat #RIF00).
The rat concanavalin A (Con A) model was selected as the acute screening model because it provides an assessment of oral bioavailability, as well as a rapid measurement of effects on Jak1-dependent mechanisms. Intravenous injection of Con A into Lewis rats results in T cell receptor ligation and activation, leading to IL-2 release and IFN-γ induction by an autocrine mechanism. IL-2 release is Jak-independent, whereas IFN-γ induction is blocked by Jak1 inhibitors.
Plasma levels of IFN-γ and IL-2 are assessed 4 hours later in a terminal bleed.

[1] = Pharmacokinetics across species; type: in vivo; details: rat, monkey, dog, plasma
[2] = Plasma protein binding, rat; type: in vitro ADME
[3] = Plasma protein binding, monkey; type: in vitro ADME
[4] = Plasma protein binding, dog; type: in vitro ADME
[5] = Plasma protein binding, human; type: in vitro ADME
[6] = Metabolic stability in liver microsomes, monkey; type: in vitro ADME; details: read-out: intrinsic clearance in liver microsomes (scaled)
[7] = Metabolic stability in hepatocytes, rat; type: in vitro ADME; details: read-out: intrinsic clearance in hepatocytes (converted)
[8] = tested on: peripheral NK, NKT cells, circulating reticulocytes; test: NK, NKT cell and reticulocyte counts in healthy human subjects dosed bid for 14 days; type: in vivo; details: 3, 6, 12, 24 mg bid 14 days
Method: The following procedure is provided to illustrate a method of counting TBNK cells from a blood sample, such as one collected from a human subject orally dosed with a compound of the invention. The method (including the type of instruments and reagents used) as described herein in is non-limiting, as minor variations to the procedure and equivalent instruments and reagents can be readily envisioned.
Specifically, a blood sample is collected into 3 mL lavender K2 EDTA Vacutainer at specified time points and tubes mixed. Samples are shipped to analysis facility at ambient temperature overnight, and sample analysis is preferably done on the day received.
Two BD Trucount tubes (BD Biosciences, cat #340334) are used per sample and labeled with sample number followed by A or B. Two tubes are also set up for the BD Multi-Check Control (BD Biosciences, cat #340911) that is a stabilized blood sample used as an inter-run control each time samples are analyzed. […]
For NKT cell determination, cell numbers are determined by using FlowJo and looking at the CD3^+/CD16^+/CD56^+ population. The number of cells/μL is calculated by using the following equation: (the number of events in cell population/the number of events in absolute bead count region)×(the number of beads per test*/test volume). *This value is found on BD Trucount tube label.

[9] = dog, in vivo
in vivo [10] = details: dog; for AUC(0-inf): AUC0-∞
in vivo [11] = details: both, rat, po
Method: The 4-week rat study was conducted at dose levels of 0, 10, 50, 100, and 200 mg/kg/day by daily oral administration (gavage). […] The cause of death was not determined for animals that died.

OAT3 = OAT3 (Homo sapiens, UniProt Q8TCC7); test: Transporter inhibition, OAT3
OAT3, sequence (Q8TCC7 whole entry): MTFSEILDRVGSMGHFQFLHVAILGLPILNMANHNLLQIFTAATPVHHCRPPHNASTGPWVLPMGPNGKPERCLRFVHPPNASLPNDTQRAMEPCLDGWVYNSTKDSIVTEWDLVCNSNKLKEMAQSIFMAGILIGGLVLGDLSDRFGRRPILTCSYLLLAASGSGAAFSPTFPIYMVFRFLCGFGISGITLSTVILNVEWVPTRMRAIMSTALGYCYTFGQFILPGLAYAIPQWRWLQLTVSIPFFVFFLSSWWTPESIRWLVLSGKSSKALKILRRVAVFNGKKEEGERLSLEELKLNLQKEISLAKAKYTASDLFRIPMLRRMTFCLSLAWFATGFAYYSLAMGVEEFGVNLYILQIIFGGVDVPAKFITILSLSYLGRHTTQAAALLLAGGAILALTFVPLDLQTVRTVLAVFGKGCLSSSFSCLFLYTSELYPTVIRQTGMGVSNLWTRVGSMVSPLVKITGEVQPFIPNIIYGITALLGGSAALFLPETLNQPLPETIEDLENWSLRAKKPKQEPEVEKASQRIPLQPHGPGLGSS

MATEK = MATEK (Homo sapiens, UniProt Q86VL8); test: Transporter inhibition, MATEK
MATEK, sequence (Q86VL8 1-566 isoform Q86VL8-3): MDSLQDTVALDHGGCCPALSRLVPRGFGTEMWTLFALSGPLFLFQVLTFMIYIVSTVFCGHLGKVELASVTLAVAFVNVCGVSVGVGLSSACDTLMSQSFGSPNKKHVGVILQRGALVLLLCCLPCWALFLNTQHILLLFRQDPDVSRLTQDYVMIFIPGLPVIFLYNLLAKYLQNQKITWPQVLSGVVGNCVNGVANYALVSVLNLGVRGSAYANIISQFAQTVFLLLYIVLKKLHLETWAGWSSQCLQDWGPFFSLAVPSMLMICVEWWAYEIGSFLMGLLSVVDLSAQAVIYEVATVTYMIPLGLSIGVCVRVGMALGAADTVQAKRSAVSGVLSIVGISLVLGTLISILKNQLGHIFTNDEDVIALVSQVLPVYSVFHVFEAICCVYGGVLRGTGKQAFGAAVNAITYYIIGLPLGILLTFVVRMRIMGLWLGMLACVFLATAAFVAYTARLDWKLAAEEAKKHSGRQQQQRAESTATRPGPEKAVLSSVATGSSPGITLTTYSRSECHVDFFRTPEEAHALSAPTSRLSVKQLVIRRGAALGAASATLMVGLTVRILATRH

OATP1B1 = OATP1B1 (Homo sapiens, UniProt Q9Y6L6); test: Transporter inhibition, OATP1B1
OATP1B1, sequence (Q9Y6L6 whole entry): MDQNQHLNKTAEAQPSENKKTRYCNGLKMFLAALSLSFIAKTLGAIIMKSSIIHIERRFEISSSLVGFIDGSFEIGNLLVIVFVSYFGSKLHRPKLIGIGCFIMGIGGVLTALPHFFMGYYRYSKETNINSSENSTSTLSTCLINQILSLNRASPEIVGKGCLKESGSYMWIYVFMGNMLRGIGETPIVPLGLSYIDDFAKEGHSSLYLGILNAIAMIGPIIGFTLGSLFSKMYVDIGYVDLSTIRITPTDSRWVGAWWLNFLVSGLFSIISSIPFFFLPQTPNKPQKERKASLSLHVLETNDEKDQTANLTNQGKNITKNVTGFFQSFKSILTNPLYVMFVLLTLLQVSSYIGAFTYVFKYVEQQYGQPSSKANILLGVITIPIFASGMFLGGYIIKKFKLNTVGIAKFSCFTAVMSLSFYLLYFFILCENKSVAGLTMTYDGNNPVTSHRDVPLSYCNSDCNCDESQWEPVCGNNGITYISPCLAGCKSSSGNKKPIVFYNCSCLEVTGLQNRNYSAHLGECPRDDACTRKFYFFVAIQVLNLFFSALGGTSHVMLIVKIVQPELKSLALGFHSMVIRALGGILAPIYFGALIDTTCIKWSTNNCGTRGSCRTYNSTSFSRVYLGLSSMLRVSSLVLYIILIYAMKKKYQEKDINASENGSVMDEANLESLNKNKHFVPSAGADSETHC

[12] = both, beagle, po, 0.5 mg/kg/day

Rock1, sequence (Q13464 whole entry, species assumed): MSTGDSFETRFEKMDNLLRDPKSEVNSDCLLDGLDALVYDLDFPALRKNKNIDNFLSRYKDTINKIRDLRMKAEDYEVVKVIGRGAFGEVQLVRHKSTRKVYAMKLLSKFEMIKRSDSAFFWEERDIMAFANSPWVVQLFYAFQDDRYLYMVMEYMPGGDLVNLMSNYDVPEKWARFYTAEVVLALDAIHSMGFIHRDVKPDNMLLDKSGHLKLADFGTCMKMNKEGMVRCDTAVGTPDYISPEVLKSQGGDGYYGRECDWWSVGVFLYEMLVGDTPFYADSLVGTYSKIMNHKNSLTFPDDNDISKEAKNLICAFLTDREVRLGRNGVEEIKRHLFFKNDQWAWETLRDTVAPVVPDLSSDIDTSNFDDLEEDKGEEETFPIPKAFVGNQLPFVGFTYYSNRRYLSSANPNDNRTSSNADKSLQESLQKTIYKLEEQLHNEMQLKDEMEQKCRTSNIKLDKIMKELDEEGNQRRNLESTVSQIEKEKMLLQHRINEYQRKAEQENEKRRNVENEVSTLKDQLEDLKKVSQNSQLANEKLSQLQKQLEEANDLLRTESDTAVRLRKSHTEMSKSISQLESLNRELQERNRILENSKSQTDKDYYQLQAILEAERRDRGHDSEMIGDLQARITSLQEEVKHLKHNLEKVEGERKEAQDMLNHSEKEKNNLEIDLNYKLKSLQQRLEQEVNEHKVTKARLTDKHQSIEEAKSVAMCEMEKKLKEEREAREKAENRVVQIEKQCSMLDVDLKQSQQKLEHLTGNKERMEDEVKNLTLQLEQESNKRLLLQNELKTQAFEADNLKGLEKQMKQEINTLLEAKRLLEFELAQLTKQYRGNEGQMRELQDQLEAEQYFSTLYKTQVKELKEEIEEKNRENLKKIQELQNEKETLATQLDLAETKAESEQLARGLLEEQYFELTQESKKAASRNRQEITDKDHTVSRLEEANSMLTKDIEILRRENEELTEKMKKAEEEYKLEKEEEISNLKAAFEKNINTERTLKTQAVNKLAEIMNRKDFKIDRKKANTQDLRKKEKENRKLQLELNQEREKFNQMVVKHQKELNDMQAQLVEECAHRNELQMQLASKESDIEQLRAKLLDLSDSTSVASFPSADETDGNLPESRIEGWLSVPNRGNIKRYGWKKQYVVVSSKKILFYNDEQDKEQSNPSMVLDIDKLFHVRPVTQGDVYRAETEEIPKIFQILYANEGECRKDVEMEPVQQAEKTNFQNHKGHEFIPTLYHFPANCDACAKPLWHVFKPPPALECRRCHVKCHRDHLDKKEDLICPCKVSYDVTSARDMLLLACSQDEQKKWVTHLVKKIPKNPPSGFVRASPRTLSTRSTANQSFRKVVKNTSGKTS

Question: For CC[C@@H]1CN(C(=O)NCC(F)(F)F)C[C@@H]1c1cnc2cnc3[nH]ccc3n12 [Compound 1, (3S,4R)-3-ethyl-4-(3H-imidazo[1,2-a]pyrrolo[2,3-e]pyrazin-8-yl)-N-(2,2,2-trifluoroethyl)pyrrolidine-1-carboxamide], which IC50 (Rock1) is on record?
Answer: 0.55 µM

Question: And the ED50 (IFN-γ; Rattus norvegicus, read-out: ED50, inhibition of IFN-γ release)?
Answer: 0.4 mg/kg

Question: What about the “ED80, inhibition of IFN-γ release” value (IFN-γ) of the same compound?
Answer: 5.8 mg/kg

Question: What about the Vd ([1]; iv, all species, read-out: Vss) of the same compound?
Answer: 1.6 to 2.7 L/kg

Question: And the half-life ([1]; oral, read-out: plasma elimination half-life after oral dosing)?
Answer: 3 to 5 h

Question: What about the fraction unbound [2] of the same compound?
Answer: 0.36

Question: What about the fraction unbound [3] of the same compound?
Answer: 0.61

Question: And the fraction unbound [4]?
Answer: 0.82

Question: What about the fraction unbound [5] of the same compound?
Answer: 0.53

Question: And the CLint scaled at 0.5 μM [6]?
Answer: < 26.7 mL/min/kg

Question: What about the CLint scaled at 1 μM [7] of the same compound?
Answer: 67.8 mL/min/kg

Question: And the “peripheral NK or NKT cell counts per μL” value [8]?
Answer: only at 12 and 24 mg

Question: And the reticulocyte counts [8]?
Answer: does not dose dependently reduce reticulocyte counts

Question: What about the “AUC lower in fed than fasted animals” value [9] of the same compound?
Answer: approximately 40%

Question: What about the “Cmax lower in fed than fasted animals” value [9] of the same compound?
Answer: approximately 3 fold

Question: What about the Vc ([9]; iv, 1 mg/kg) of the same compound?
Answer: 1.9 L/kg

Question: What about the Vβ ([9]; iv, 1 mg/kg) of the same compound?
Answer: 2.9 L/kg

Question: What about the F ([9]; po, 5 mg/kg) of the same compound?
Answer: 65.8 (12.1) %

Question: And the “adverse events severe, serious, or fatal” value (Study M13-845)?
Answer: None

Question: What about the “number of adverse events in combined treatment groups” value (Substudy 2, RA on MTX, 6, 12, 24 mg BID, all reported as not related) of the same compound?
Answer: 7

Question: What about the “subjects reporting treatment emergent AEs (6 out of 42)” value (healthy volunteers, as printed under Substudy 1) of the same compound?
Answer: 14.3%

Question: What about the AUC (in vivo [10]; [12]) of the same compound?
Answer: 359 ng·h/mL

Question: And the AUC at 28 days (in vivo [10]; [12])?
Answer: 339 ng·h/mL

Question: And the AUC (in vivo [10]; both, beagle, po, 3 mg/kg/day)?
Answer: 2200 ng·h/mL

Question: And the AUC at 28 days (in vivo [10]; both, beagle, po, 3 mg/kg/day)?
Answer: 2140 ng·h/mL

Question: What about the Cmax (in vivo [10]; both, beagle, po, 3 mg/kg/day) of the same compound?
Answer: 617 ng/mL

Question: What about the AUC (in vivo [10]; both, beagle, po, 5 mg/kg/day) of the same compound?
Answer: 4430 ng·h/mL

Question: What about the AUC at 28 days (in vivo [10]; both, beagle, po, 5 mg/kg/day) of the same compound?
Answer: 4100 ng·h/mL

Question: What about the Cmax (in vivo [10]; both, beagle, po, 5 mg/kg/day) of the same compound?
Answer: 1240 ng/mL

Question: What about the Vd (in vivo [10]; iv, 1 mg/kg) of the same compound?
Answer: 2.6 L/kg

Question: And the clearance (in vivo [10]; iv, 1 mg/kg)?
Answer: 11 mL/min/kg

Question: And the half-life (in vivo [10]; iv, 1 mg/kg)?
Answer: 3.1 h

Question: And the AUC(0-inf) (in vivo [10]; iv, 1 mg/kg)?
Answer: 1610 ng·h/mL

Question: What about the half-life (in vivo [10]; po, 1 mg/kg) of the same compound?
Answer: 2.8 h

Question: And the AUC(0-inf) (in vivo [10]; po, 1 mg/kg)?
Answer: 1240 ng·h/mL

Question: And the Cmax (in vivo [10]; po, 1 mg/kg)?
Answer: 349 ng/mL

Question: What about the AUC(0-inf) (in vivo [10]; po, 5 mg/kg) of the same compound?
Answer: 5310 ng·h/mL

Question: And the NOAEL at 4 weeks (in vivo [11])?
Answer: 50 mg/kg/day

Question: What about the IC50 (OAT3) of the same compound?
Answer: 43 µM

Question: What about the IC50 (MATEK) of the same compound?
Answer: > 15 µM

Question: What about the IC50 (OATP1B1) of the same compound?
Answer: 48 µM
